{"source": "patent US9821042B2", "about": "“Use of antagonists of ghrelin or ghrelin receptor to prevent or treat stress-sensitive psychiatric illness” (Massachusetts Institute of Technology, priority 2012, dated 2017)", "key": {"[1]": {"system": "adult male Long Evans rats", "assay": "Elevated plus maze after systemic MK-0677", "format": "in vivo, rat", "conditions": "5 d systemic injections, single 8 minute session 24 h after last injection", "protocol": "Rats received a daily systemic injection of MK-0677 (MK: 5d), an agonist of GHSR-1a, or vehicle (VEH: 5d) for five days at the endogenous ghrelin signaling nadir. Spontaneous freezing (a) and locomotion (b) were assessed in a novel context 24 h after the last injection. A separate group was assessed on the elevated plus maze in a single 8 minute session 24 h after the last injection. Total arm entries (c) and open arm time (d) were measured to assess exploratory behavior and innate anxiety, respectively. (e) Animals received Pavlovian fear conditioning 24 h before beginning daily handling injections of MK-0677 (Post FC MK: 5d) or vehicle (Post FC VEH: 5d) for 5d. […] All data are mean±s.e.m.\nElevated Plus Maze. Rats were tested for anxiety using an elevated plus maze (Hamilton Kinder; Poway, Calif.). The maze had two open arms (51 cm×12 cm each) and was located in a moderately lit room. Open arms consisted of black Plexiglas floors and no walls. The closed arms had black Plexiglas walls 40 cm high. […] Automated software (Motor Monitor 4.14) recorded the second by second movements of the animals while the experimenter made observations in an obscured corner. Each session lasted 8 m and both the observer and the software recorded the latency to exit the first arm and the number of entries into the open and closed arms. Additionally, the software recorded time spent in the each region of the maze. […]"}, "[2]": {"conditions": "cited from earlier work; for crossing of the blood-brain barrier: in vivo"}, "CRF": {"system": "CRF", "assay": "Brain CRF levels by ELISA after systemic MK-0677", "format": "in vivo, rat", "conditions": "5 d systemic injections, 24 h after final injection", "protocol": "Rats received daily systemic injections of MK-0677 (MK: 5d), a GHSR-1a agonist, or saline (VEH: 5d) for five days at the endogenous ghrelin signaling nadir. (b) One group underwent auditory fear conditioning 24 h following the final injection. Fear acquisition was assessed by monitoring freezing levels. (c) Conditional freezing to the tone was assessed in a novel context 48 h following fear conditioning. A separate group was sacrificed 24 h following the final injection and microdissections of hypothalamus and amygdala performed. Brain CRF levels were measured using ELISA (d) hypothalamus, (e), basolateral complex of the amygdala). * p<0.05, ** p<0.01, ˜p<0.10 in planned comparisons.\nHormone Assays. Corticosterone, acylated ghrelin, growth hormone and CRF levels were determined using commercial ELISA kits. For corticosterone, non-acidified plasma was diluted 1:25 in assay buffer 15 (Enzo Life Sciences; Farmingdale, N.Y.). For acylated ghrelin, the acidified sample was used for the active ghrelin ELISA (Millipore; Billerica, Mass.) and processed according to the manufacturer's protocol. […] For growth hormone, brain tissue was homogenized 1:6 in lysis buffer and was assayed as per manufacturer's protocol (Millipore; Billerica, Mass.). […]"}, "[3]": {"system": "adult male Long Evans rats", "assay": "Auditory fear conditioning after repeated intra-BLA infusions of ghrelin receptor agonist", "format": "in vivo, rat", "conditions": "intra-BLA infusion daily for five days", "protocol": "Cannulae Implants. Rats were anesthetized with a cocktail of 10 mg/kg acepromazine, […], and 100 mg/kg ketamine (1 ml/kg; i.p.). Rats were mounted into a dual arm stereotaxic frame (Kopf Instruments; Tujunga, Calif.). The rats were then bilaterally implanted with 23-gauge stainless steel guide cannulae aimed 1 mm above the lateral amygdala: A/P −2.0, M/L+/−5.3, D/V −5.4, relative to brain surface and bregma (45). The cannulae were secured by the placement of three jeweler screws in the skull and dental acrylic. Dummy cannulae extending 1 mm past the tip of the guide cannulae were placed into the guide cannula after surgery and changed every other day. Rats received 0.03 mg/kg of Buprenex (1 ml/kg; s.c.) as post-operative pain management every 12 h for at least 24 h and up to 3 days. All rats recovered for a minimum of 5 days before experimentation commenced.\nDrug Infusion. For intra-cranial infusions, rats were placed in 5-gallon buckets containing bedding. The dummy cannulae were removed and injectors (30G stainless steel cannulae; extending 1 mm beyond the cannulae end) were inserted. The injectors were attached to Hamilton syringes (10 ul; Hamilton Co., Reno, Nev.) via polyethylene tubing, and the syringes were mounted in a Harvard syringe pump (Harvard Apparatus; Holliston, Mass.). Infusions were given at a rate of 0.1 ul/m for 5 m for a total volume of 0.5 ul/side, with 1 m for diffusion, before the injectors were removed and new dummy cannulae were inserted.\n(§1) Pavlovian Fear Conditioning.\nFear memory requires plasticity in numerous brain regions but the basolateral complex of the amygdala (BLA) is particularly important for both formation and storage of learned fear."}, "[4]": {"system": "adult male Long Evans rats", "assay": "Auditory Pavlovian fear conditioning after systemic ghrelin receptor agonist injections in nonstressed rats", "format": "in vivo, rat", "conditions": "for fear memory after a single injection: 1 day of injection, conditioning 24 h later; for long-term fear memory (conditional freezing to the tone): conditioning 24 h after last injection, test 48 h later", "protocol": "Subjects. All experiments used adult male Long Evans rats (250-350 g, Taconic, Germantown, N.Y.), housed individually (68-72° F.; 12-h light-dark cycle, 7 AM lights on). Food and water (or 0.9% saline for adrenalectomy experiments) was provided ad libitum. Stressed and unstressed animals were housed in separate cubicles. All procedures were in accordance with the US National Institutes of Health (NIH) Guide for the Care and Use of Laboratory Animals and were approved by the MIT Institutional Animal Care and Use Committee and the Animal Care and Use Review Office of the USAMRMC.\nas §1\nTo determine whether increased activation of the ghrelin receptor is sufficient for enhancement of fear memory, experiments were conducted using pharmacological agonism of GHSR-1a in non-stressed animals. […] MK-0677 (MK: 5d) or saline (VEH: 5d) was systemically administered once a day for five consecutive days in nonstressed rats to determine whether repeated ghrelin receptor agonism in the absence of stress is sufficient to increase fear learning and whether HPA hormones may play a role in this effect. […] One subset of animals was administered auditory fear conditioning 24 h after the last injection."}, "growth hormone release": {"system": "growth hormone release", "conditions": "dose of 0.5 mg/ml; cited from earlier work"}, "melanocortin receptors": {"target": "melanocortin receptors", "conditions": "cited from earlier work"}, "[5]": {"system": "adult male Long Evans rats", "assay": "Chronic immobilization stress followed by auditory fear conditioning, ghrelin receptor blockade during stress", "conditions": "for long-term fear memory in stressed rats (stress-enhanced fear): daily systemic injection at start of immobilization stress, 4 h/d 14 d", "quoted_text": "Drug Preparation. For systemic drug delivery, rats were injected with 1 ml/kg (i.p.) of the appropriate solution. All drugs were solubilized in 0.9% saline (vehicle) such that injection volumes remained constant for each experiment. […] D-Lys3-GHRP-6 (Tocris Biosciences; Minneapolis, Minn.) was diluted to 2.74 ug/ml in vehicle. […] D-Lys3-GHRP-6 was injected within 30 m of the start of immobilization stress or following handling.\nImmobilization Stress. Immobilization stress was administered 4 h per day for 1-14 consecutive days, depending on the experiment. Animals were placed in Decapicone plastic bags (Braintree Scientific; Braintree, Mass.), which were secured at the tail. Stress occurred in a lab room used for no other procedures. All stress sessions were performed between LOAM and 4 PM. Unstressed control rats were handled daily for 30 s. For further parallel control parameters, food was removed from the unstressed rats daily for the same 4 h period in which stressed animals were immobilized and, therefore, without food.\nPavlovian Fear Conditioning. Fear conditioning experiments were conducted in a modified chamber (MED Associates; St. Albans, Vt.) housed in a sound-attenuated cubicle. The animals were placed in individual chambers and infrared video of each session was recorded. Each experiment used auditory fear conditioning wherein rats received 3-5 tone (2 kHz, 85 dB, 10-16s)-footshock (1-2s, 0.4-0.7 mA) pairings in a unique context (metal shock grid floors, chamber fan on, 0.3% PineSol odor, house and room lights on). Animals were allowed 2-3 m to habituate to the chamber before tone-footshock pairings were given at intervals of 1-4 m. Fear memory was tested 24-72 h later by placing the animals in a novel context (white Plexiglas plastic floors, curved Plexiglas wall inserts, fans off, 1% acetic acid odor, house and room lights off). One to 5 m after placement in the novel context, fear to the tone was assessed either by presenting a continuous tone (2 kHz, 85 dB, 8 minutes) or several discrete tones (15 10-16s tones with 1-4 m ISI). Freezing was measured using commercial software (VideoFreeze, MedAssociates, St. Albans, Vt.).\nStatistics. For each fear memory session, conditional freezing was assessed as a percentage of time spent freezing, a probability estimate that is amenable to analysis with parametric statistics. These probability estimates of freezing, along with other measures, were analyzed using ANOVA. Post hoc comparisons in the form of Fisher's PLSD tests were performed after a significant omnibus F-ratio (p<0.05). […] All data where p>0.10 are identified as not significant (ns).\nTo determine whether ghrelin signaling is necessary for stress-related enhancement of fear memory, ghrelin receptor signaling was blocked during repeated stress sessions. […] Twenty-four hours following the final stress or handling session, auditory fear conditioning was administered and fear to the tone was assessed in a subsequent session."}, "corticosterone": {"system": "corticosterone", "assay": "Plasma corticosterone by ELISA in stressed rats given DLys3", "format": "in vivo, rat", "conditions": "stressed animals, tail bleeds in final 30 m of final stress session", "protocol": "Rats received either daily handling (NS) or immobilization stress (STR). Each day, a systemic injection of either Dlys3-GHRP-6 (Dlys3), an antagonist of GHSR-1a, or saline (VEH) was administered within 30 m of handling or stress initiation. (a) Animals received auditory fear conditioning 24 h after the last stress or handling session. […] (c) In a subset of animals in the STR group, tail bleeds were performed during the final 30 m of the final stress session and plasma corticosterone levels were measured using ELISA. All data are mean±s.e.m. * p<0.05, ˜p<0.10 in planned comparisons.\nHormone Assays. Corticosterone, acylated ghrelin, growth hormone and CRF levels were determined using commercial ELISA kits. For corticosterone, non-acidified plasma was diluted 1:25 in assay buffer 15 (Enzo Life Sciences; Farmingdale, N.Y.). For acylated ghrelin, the acidified sample was used for the active ghrelin ELISA (Millipore; Billerica, Mass.) and processed according to the manufacturer's protocol. […] For growth hormone, brain tissue was homogenized 1:6 in lysis buffer and was assayed as per manufacturer's protocol (Millipore; Billerica, Mass.). For CRF, brain tissue collected by micro-dissection was homogenized 1:30 w/v in lysis buffer and assayed per manufacturer's protocol (Kamiya Biomedical Company, Seattle, Wash.)."}, "GHSR1a": {"target": "GHSR1a (Homo sapiens, UniProt Q92847)", "sequence (Q92847 whole entry)": "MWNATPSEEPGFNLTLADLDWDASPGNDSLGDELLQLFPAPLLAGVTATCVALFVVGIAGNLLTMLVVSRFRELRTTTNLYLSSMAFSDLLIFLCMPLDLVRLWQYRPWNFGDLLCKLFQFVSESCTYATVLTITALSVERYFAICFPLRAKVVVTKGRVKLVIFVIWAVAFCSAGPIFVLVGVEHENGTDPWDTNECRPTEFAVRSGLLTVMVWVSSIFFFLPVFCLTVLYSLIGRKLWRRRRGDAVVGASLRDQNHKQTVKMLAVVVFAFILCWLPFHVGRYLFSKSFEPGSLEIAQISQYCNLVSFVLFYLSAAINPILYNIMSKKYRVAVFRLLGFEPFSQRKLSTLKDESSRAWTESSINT", "conditions": "Tocris Bioscience literature; read-out: IC50 as inhibitor of GHSR1a; cited from earlier work"}, "[6]": {"conditions": "systemic injection once a day for 5 days, nonstressed rats"}}, "note": "Where two headings read alike, the source gives them in different places. Non-standard residues stand in square brackets, D forms with d. No end group written: not given here."}
{"molecule": "CC(C)(N)C(=O)N[C@H](COCc1ccccc1)C(=O)N1CCC2(CC1)CN(S(C)(=O)=O)c1ccccc12", "note": "[MK-0677]", "values": [{"measurement": "innate anxiety (open arm time)", "setting": "[1]", "result": "not altered"}, {"measurement": "crossing of the blood-brain barrier", "setting": "[2]", "result": "readily crosses the blood-brain barrier"}, {"measurement": "half-life", "setting": "[2]; ref 30", "result": "5 to 6", "unit": "h"}, {"measurement": "half-life", "setting": "[2]; refs 47, 48", "result": "over six"}, {"measurement": "amygdalar CRF level", "setting": "CRF", "result": "trend for repeated ghrelin receptor activation to decrease"}, {"measurement": "hypothalamic CRF level", "setting": "CRF", "result": "no change"}, {"measurement": "freezing during fear conditioning", "setting": "[3]", "result": "not altered"}, {"measurement": "long-term fear memory", "setting": "[3]", "result": "significantly enhanced"}, {"measurement": "long-term fear memory", "setting": "[3]; listed as MK677", "result": "sufficient to enhance fear memory"}, {"measurement": "fear memory after a single injection", "setting": "[4]", "result": "trend towards impairment"}, {"measurement": "fear memory after a single injection", "setting": "[4]; listed as MK677", "result": "no effect"}, {"measurement": "expression of previously acquired auditory fear memory", "setting": "[4]; conditioning 24 h before 5 d of injections, test 24 h after last injection", "result": "not affected"}, {"measurement": "fear memory after 3 days of injections", "setting": "[4]; daily injections for 3 days", "result": "no effect"}, {"measurement": "fear memory after a single injection followed by 14 d delay", "setting": "[4]; single injection, 14 d in vivarium before conditioning", "result": "not sufficient to enhance fear"}, {"measurement": "fear acquisition during conditioning (freezing)", "setting": "[4]; [6]", "result": "did not alter"}, {"measurement": "long-term fear memory (conditional freezing to the tone)", "setting": "[4]; [6]", "result": "significantly enhanced"}, {"measurement": "long-term fear memory (conditional freezing to the tone)", "setting": "[4]; systemic injection once a day for 5 days, nonstressed rats, listed as MK677", "result": "increased fear memory"}, {"measurement": "growth hormone release", "setting": "growth hormone release", "result": "significant and prolonged increases"}, {"measurement": "tolerability", "setting": "growth hormone release", "result": "well-tolerated"}]}
{"molecule": "H[dW][dK]W[dF]K-NH2 [D-Lys3-GHRP-6]", "values": [{"measurement": "crossing of the blood-brain barrier", "setting": "[2]", "result": "crosses the blood brain barrier"}, {"measurement": "crossing of the blood-brain barrier", "setting": "[2]; listed as DLys3", "result": "crosses the blood-brain barrier"}, {"measurement": "Ki", "setting": "melanocortin receptors", "result": "26 to 120", "unit": "µM"}, {"measurement": "long-term fear memory in stressed rats (stress-enhanced fear)", "setting": "[5]; listed as DLys3", "result": "completely reversed stress-enhanced fear"}, {"measurement": "long-term fear memory in stressed rats (stress-enhanced fear)", "setting": "[5]; listed as Dlys-3", "result": "sufficient to prevent stress-related enhancement of fear memory"}, {"measurement": "stress enhancement of fear acquisition", "setting": "[5]; daily systemic injection during immobilization stress", "result": "not seen"}, {"measurement": "fear memory in nonstressed controls", "setting": "[5]; daily systemic injection with daily handling", "result": "no effect"}, {"measurement": "stress-induced HPA activation as corticosterone secretion", "setting": "corticosterone", "result": "did not blunt"}, {"measurement": "IC50", "setting": "GHSR1a", "result": 900, "unit": "nM"}]}
{"molecule": "acylated ghrelin: acylated (bioactive) form of the peptide hormone ghrelin, infused into the BLA", "values": [{"measurement": "half-life", "setting": "[2]; ref 29", "result": "~30", "unit": "m"}, {"measurement": "long-term fear memory", "setting": "[3]; listed as bioactive ghrelin", "result": "replicated"}]}
